Peptide text beside a SMILES is read from it.
Tests used:
[1] = In vitro protein binding, rapid equilibrium dialysis; format: in vitro ADME; conditions: CD-1, mouse, plasma
[2] = Plasma stability; format: in vitro ADME, beagle dog
[3] = Metabolism of FC-12738 in SD rat urine, feces and bile; format: in vivo; conditions: SC 10 mg/kg FC-12738 single
[4] = target: T1, CYP1A2 (Homo sapiens, UniProt P05177); test: biochemical; format: in vitro ADME
T1 sequence (P05177 1-516): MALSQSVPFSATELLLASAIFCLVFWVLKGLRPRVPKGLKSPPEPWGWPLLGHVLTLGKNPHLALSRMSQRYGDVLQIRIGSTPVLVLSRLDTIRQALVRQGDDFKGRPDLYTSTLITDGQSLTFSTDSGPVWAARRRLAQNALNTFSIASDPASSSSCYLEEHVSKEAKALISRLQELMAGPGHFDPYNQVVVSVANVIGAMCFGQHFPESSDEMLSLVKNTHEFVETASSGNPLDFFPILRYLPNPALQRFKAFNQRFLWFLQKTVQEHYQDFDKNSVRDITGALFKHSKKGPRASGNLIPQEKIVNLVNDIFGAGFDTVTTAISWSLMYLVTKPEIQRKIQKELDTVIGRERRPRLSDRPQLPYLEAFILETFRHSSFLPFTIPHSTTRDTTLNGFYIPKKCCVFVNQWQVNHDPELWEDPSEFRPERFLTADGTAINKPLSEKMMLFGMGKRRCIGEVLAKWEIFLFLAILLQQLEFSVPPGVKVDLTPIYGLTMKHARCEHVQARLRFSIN

[5] = system: CYP3A4; test: CYP induction assay in human hepatocytes; format: in vitro ADME; conditions: cryopreserved human hepatocytes, three donors, 0.100 to 15.0 μM, 48 h, 37°C

In the case of `CC(C)[C@@H](NC(=O)[C@H](N)Cc1ccc(O)cc1)C(=O)N[C@H](CC(=O)O)C(=O)N[C@H](CCCCN)C(=O)N[C@H](CCCNC(=N)N)C(=O)O` [FC-12738, (D-Tyr)-(D-Val)-(D-Asp)-(D-Lys)-(D-Arg)] (HELM PEPTIDE1{[dY].[dV].[dD].[dK].[dR]}$$$$V2.0), the fraction unbound at 6 h, 0.2 µM [1] is reported as 0.449, the fraction unbound at 6 h, 2 µM [1] is reported as 0.455 and the fraction unbound at 6 h, 10 µM [1] is reported as 0.479. For the same compound, the half-life ([2]; beagle dog plasma, 2.00 μM, 37.0 °C, up to 120 min) was > 6.212 h, the remaining at 10 min, 2 μM ([2]; beagle, dog, plasma) was 106% and the remaining at 0.5 h, 2 μM ([2]; beagle, dog, plasma) was 105%. For the same compound, the remaining at 1 h, 2 μM ([2]; beagle, dog, plasma) was 106%, the remaining at 2 h, 2 μM ([2]; beagle, dog, plasma) was 101% and the “Relative MS abundance (%Total)” value ([3]; male SD rat bile) was 100.00%. For the same compound, the “Relative MS abundance (%Total)” value ([3]; male SD rat feces) was 100.00%, the “Relative MS abundance (%Total)” value ([3]; male SD rat urine) was 99.93% and the IC50 [4] was > 100 µM. For the same compound, the “Induction of CYP3A4 (enzyme activity and gene expression)” value [5] was “not considered as an inducer”.
